Results taken from publication PMC10886162, “Synthesis of Novel Artemisinin, Ciprofloxacin, and Norfloxacin Hybrids with Potent Antiplasmodial Activity” (Antibiotics, 2024).
Several values for one entry are separate records, joined by “and”; a condition that tells them apart may be missing. Equal entries are not always repeated.

Tests used:
[1] = tested on: CQ-resistant P. falciparum FcB1 strain; assay: In vitro growth inhibition of P. falciparum FcB1 ([3H]-hypoxanthine incorporation); type: cell-based, Plasmodium falciparum; conditions: for IC50: Plasmodium falciparum; for Selectivity Index (IC50 AB943/IC50 FcB1): ratio of cytotoxicity IC50 to antiplasmodial IC50 (FcB1)
Description: (§1) The chloroquine-resistant FcB1/Colombia and Dd2/Indochina strains of Plasmodium falciparum were obtained from the Protist Collection of the National Museum of Natural History, Paris, France (n° MNHN-CEU-2016-224-PfFCB1 and MNHN-CEU-2016-222-PfDD2). The parasites were maintained in vitro on human erythrocytes in RPMI 1640 medium supplemented by 8% (v/v) heat-inactivated human serum, at 37 °C, under an atmosphere of 5% CO2. The human red blood cells and serum were provided by the Établissement Français du Sang under the C-CPSL-UNT approval no. 13/EFS/126. The in vitro drug susceptibility assays were measured by [^3H]-hypoxanthine incorporation, as previously described. The drug stock solutions were prepared in DMSO. Briefly, the assays were performed in 96-well plates. The compounds were diluted in the culture medium (100 μL per well). The parasite cultures (100 μL, 2% parasitaemia, and 1% final hematocrit) were then added to each well and incubated for 24 h at 37 °C prior to the addition of 0.5 μCi of [^3H]- hypoxanthine (GE Healthcare, Paris, France, 1 to 5 Ci·mmol/mL) per well. After a further incubation of 24 h, the plates were frozen and thawed. The cell lysates were then collected onto fiberglass filters and counted in a liquid scintillation spectrometer. The growth inhibition for each drug concentration was determined through a comparison of the radioactivity incorporated in the treated culture with that in the control culture maintained on the same plate. The drugs were first evaluated for a range of fixed concentrations of 50, 5, 0.5, 0.05, and 0.005 μg/mL. […] The IC50 value was obtained from the drug concentration–response curve, and the results were expressed in μM or nM as the mean values ± standard deviations determined from several independent experiments. Artesunate (46) was used as an antimalarial drug control.

[2] = tested on: CQ-resistant Dd2 strain of P. falciparum; assay: In vitro growth inhibition of P. falciparum Dd2 ([3H]-hypoxanthine incorporation); type: cell-based, Plasmodium falciparum; conditions: for IC50: Plasmodium falciparum, CQ-resistant Dd2, mean +/− SD of at least three independent experiments; for Selectivity Index (IC50 AB943/IC50 Dd2): ratio of cytotoxicity IC50 to antiplasmodial IC50 (Dd2)
Description: as §1

[3] = tested on: human primary fibroblasts AB943; assay: Cytotoxicity upon human primary fibroblasts AB943 (resazurin); type: cell-based; conditions: Fibroblast, 72 h, mean +/− SD of at least three independent experiments
Description: A cellular cytotoxicity evaluation was performed upon human primary fibroblasts AB943, as previously described. The assays were realized in 96-well plates in DMEM + Glutamax without phenol red medium containing 25 mM HEPES, a pH of 7.3, and 10% of fetal calf serum under a 5% CO2 atmosphere, at 37 °C. After trypsin treatment, the AB943 cells were seeded at 2000 cells per well in 100 μL. After 24 h of incubation, drugs diluted in the culture medium were added (100 μL per well). The drug stock solutions were prepared in dimethyl sulfoxide (DMSO). The final DMSO concentration in the cultures remained below 1%. Control cultures were constituted of cultures treated with DMSO instead of the drug. The cytotoxicity assay was based on the conversion of a redo-sensitive dye (resazurin) to a fluorescent product via viable cells. After 72 h of incubation, the resazurin solution was added in each well at a final concentration of 45 μM. The fluorescence was measured at 530 nm excitation and 590 nm emission wavelengths after 4 h of incubation. The percentage of the inhibition of cell growth was calculated by comparing the fluorescence of cells maintained in the presence of the drug to that in the absence of the drug. The concentration causing 50% growth inhibition (IC50) was obtained from the drug concentration–response curve, and the results were expressed as the mean values ± standard deviations determined from several experiments.

[4] = FCB1, CQ-resistant FcB1, mean +/− standard deviation of independent experiments (at least four in Tables 1-2, at least three in Tables 3-4)
[5] = FCB1, Table 5, single compound (hybrid or AS alone)

| SMILES | IC50 [1, 4] | Selectivity Index (IC50 AB943/IC50 FcB1) [1] | IC50 [2] | Selectivity Index (IC50 AB943/IC50 Dd2) [2] | IC50 [3] | melting point | IC50 [1, 5] |
| --- | --- | --- | --- | --- | --- | --- | --- |
| CCCCOC(=O)c1cn(C2CC2)c2cc(N3CCN(C(=O)C[C@H]4O[C@@H]5O[C@@]6(C)CCC7[C@H](C)CCC([C@H]4C)[C@]75OO6)CC3)c(F)cc2c1=O (stereo partly drawn) [Compound 16, Butyl 1-cyclopropyl-6-fluoro-4-oxo-7-(4-(2-((3R,6R,9R,10R,12R,12aR)-3,6,9-trimethyldecahydro-12H-3,12-epoxy[1,2]dioxepino[4,3-i]isochromen-10-yl)acetyl)piperazin-1-yl)-1,4-dihydroquinoline-3-carboxylate] | 7.5 nM | 2000 | 24 nM | 622 | 14900 nM | 105 to 106 °C |  |
| CCOC(=O)c1cn(CC)c2cc(N3CCN(C(=O)C[C@H]4O[C@@H]5O[C@@]6(C)CCC7[C@H](C)CCC([C@H]4C)[C@]75OO6)CC3)c(F)cc2c1=O (stereo partly drawn) [Compound 18, Ethyl 1-ethyl-6-fluoro-4-oxo-7-(4-(2-((3R,6R,9R,10R,12R,12aR)-3,6,9-trimethyldecahydro-12H-3,12-epoxy[1,2]dioxepino[4,3-i]isochromen-10-yl)acetyl)piperazin-1-yl)-1,4-dihydroquinoline-3-carboxylate] | 25.5 nM | 2129 | 58.7 nM | 925 | 54300 nM | 135.1 to 136 °C |  |
| CCCCOC(=O)c1cn(CC)c2cc(N3CCN(C(=O)C[C@H]4O[C@@H]5O[C@@]6(C)CCC7[C@H](C)CCC([C@H]4C)[C@]75OO6)CC3)c(F)cc2c1=O (stereo partly drawn) [Compound 19, Butyl 1-ethyl-6-fluoro-4-oxo-7-(4-(2-((3R,6R,9R,10R,12R,12aR)-3,6,9-trimethyldecahydro-12H-3,12-epoxy[1,2]dioxepino[4,3-i]isochromen-10-yl)acetyl)piperazin-1-yl)-1,4-dihydroquinoline-3-carboxylate] | 13.9 nM | 1294 | 38.4 nM | 469 | 18000 nM | 151 to 152 °C |  |
| C[C@@H]1CCC2[C@@H](C)[C@H](OC(=O)CCC(=O)N3CCN(c4cc5c(cc4F)c(=O)c(C(=O)O)cn5C4CC4)CC3)O[C@@H]3O[C@@]4(C)CCC1[C@@]23OO4 (stereo partly drawn) [Compound 20, 1-cyclopropyl-6-fluoro-4-oxo-7-(4-(4-oxo-4-(((3R,6R,9R,10S,12R,12aR)-3,6,9-trimethyldecahydro-12H-3,12-epoxy[1,2]dioxepino[4,3-i]isochromen-10-yl)oxy)butanoyl)piperazin-1-yl)-1,4-dihydroquinoline-3-carboxylic acid] | 4 nM | 10,318 | 8 nM | 5146 | 41300 nM | 103.4 to 104.5 °C |  |
| CCOC(=O)c1cn(C2CC2)c2cc(N3CCN(C(=O)CCC(=O)O[C@@H]4O[C@@H]5O[C@@]6(C)CCC7[C@H](C)CCC([C@H]4C)[C@]75OO6)CC3)c(F)cc2c1=O (stereo partly drawn) [Compound 21, Ethyl 1-cyclopropyl-6-fluoro-4-oxo-7-(4-(4-oxo-4-(((3R,6R,9R,10S,12R,12aR)-3,6,9-trimethyldecahydro-12H-3,12-epoxy[1,2]dioxepino[4,3-i]isochromen-10-yl)oxy)butanoyl)piperazin-1-yl)-1,4-dihydroquinoline-3-carboxylate] | 5.4 nM | 9826 | 16 nM | 3302 | 52800 nM | 115.4 to 116.2 °C |  |
| CCCCOC(=O)c1cn(C2CC2)c2cc(N3CCN(C(=O)CCC(=O)O[C@@H]4O[C@@H]5O[C@@]6(C)CCC7[C@H](C)CCC([C@H]4C)[C@]75OO6)CC3)c(F)cc2c1=O (stereo partly drawn) [Compound 22, Butyl 1-cyclopropyl-6-fluoro-4-oxo-7-(4-(4-oxo-4-(((3R,6R,9R,10S,12R,12aR)-3,6,9-trimethyldecahydro-12H-3,12-epoxy[1,2]dioxepino[4,3-i]isochromen-10-yl)oxy)butanoyl)piperazin-1-yl)-1,4-dihydroquinoline-3-carboxylate] | 3.5 nM | 11,303 | 13 nM | 3002 | 38900 nM | 128.6 to 129.7 °C | 3.5 nM |
| CCOC(=O)c1cn(CC)c2cc(N3CCN(C(=O)CCC(=O)O[C@@H]4O[C@@H]5O[C@@]6(C)CCC7[C@H](C)CCC([C@H]4C)[C@]75OO6)CC3)c(F)cc2c1=O (stereo partly drawn) [Compound 23, Ethyl 1-ethyl-6-fluoro-4-oxo-7-(4-(4-oxo-4-(((3R,6R,9R,10S,12R,12aR)-3,6,9-trimethyldecahydro-12H-3,12-epoxy[1,2]dioxepino[4,3-i]isochromen-10-yl)oxy)butanoyl)piperazin-1-yl)-1,4-dihydroquinoline-3-carboxylate] | 1.5 nM | 28,000 and 28,382 | 3.5 nM | 12,488 | 43700 nM | 140 to 141.1 °C | 1.5 nM |
| CCCCOC(=O)c1cn(CC)c2cc(N3CCN(C(=O)CCC(=O)O[C@@H]4O[C@@H]5O[C@@]6(C)CCC7[C@H](C)CCC([C@H]4C)[C@]75OO6)CC3)c(F)cc2c1=O (stereo partly drawn) [Compound 24, Butyl 1-ethyl-6-fluoro-4-oxo-7-(4-(4-oxo-4-(((3R,6R,9R,10S,12R,12aR)-3,6,9-trimethyldecahydro-12H-3,12-epoxy[1,2]dioxepino[4,3-i]isochromen-10-yl)oxy)butanoyl)piperazin-1-yl)-1,4-dihydroquinoline-3-carboxylate] | 1.9 nM | 16,000 and 16,047 | 9.2 nM | 3311 | 30300 nM | 155 to 156 °C | 1.9 nM |
| C[C@@H]1CCC2[C@@H](C)[C@@H](CC(=O)N3CCN(c4cc5c(cc4F)c(=O)c(C(=O)N4CCN(c6ccnc7cc(Cl)ccc67)CC4)cn5C4CC4)CC3)O[C@@H]3O[C@@]4(C)CCC1[C@@]23OO4 (stereo partly drawn) [Compound 25, 3-(4-(7-chloroquinolin-4-yl)piperazine-1-carbonyl)-1-cyclopropyl-6-fluoro-7-(4-(2-((3R,6R,9R,10R,12R,12aR)-3,6,9-trimethyldecahydro-12H-3,12-epoxy[1,2]dioxepino[4,3-i]isochromen-10-yl)acetyl)piperazin-1-yl)quinolin-4(1H)-one] | 7.5 nM | 521 | 17.7 nM | 220 | 3900 nM | 160.2 to 161.3 °C |  |
| C[C@@H]1CCC2[C@@H](C)[C@@H](CCC(=O)N3CCN(c4cc5c(cc4F)c(=O)c(C(=O)N4CCN(c6ccnc7cc(Cl)ccc67)CC4)cn5C4CC4)CC3)O[C@@H]3O[C@@]4(C)CCC1[C@@]23OO4 (stereo partly drawn) [Compound 26, 3-(4-(7-chloroquinolin-4-yl)piperazine-1-carbonyl)-1-cyclopropyl-6-fluoro-7-(4-(3-((3R,6R,9R,10R,12R,12aR)-3,6,9-trimethyldecahydro-12H-3,12-epoxy[1,2]dioxepino[4,3-i]isochromen-10-yl)propanoyl)piperazin-1-yl)quinolin-4(1H)-one] | 13.7 nM | 2668 | 41.5 nM | 880 | 36500 nM | 115 to 116 °C |  |
